Data as given in PubChem BioAssay (NCI).
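Abbreviation: GI50, concentration required for 50% inhibition of growth. TGI: concentration producing complete growth inhibition.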

Key:
Experiment in all cases: NCI anticancer screen, dose series, 384-well format
786-0 renal = system: 786-0 renal
A498 renal = system: A498 renal
A549 NSCLC = system: A549 NSCLC
ACHN renal = system: ACHN renal
CAKI-1 renal = system: CAKI-1 renal
CCRF-CEM leukemia = system: CCRF-CEM leukemia
COLO 205 colon = system: COLO 205 colon
DU-145 prostate = system: DU-145 prostate
EKVX NSCLC = system: EKVX NSCLC
HCC-2998 colon = system: HCC-2998 colon
HCT-15 colon = system: HCT-15 colon
HL-60(TB) leukemia = system: HL-60(TB) leukemia
HOP-62 NSCLC = system: HOP-62 NSCLC
HS 578T breast = system: HS 578T breast
HT29 colon = system: HT29 colon
IGROV1 ovarian = system: IGROV1 ovarian
K-562 leukemia = system: K-562 leukemia
KM12 colon = system: KM12 colon
LOX IMVI melanoma = system: LOX IMVI melanoma
M14 melanoma = system: M14 melanoma
MCF7 breast = system: MCF7 breast
MDA-MB-231 breast = system: MDA-MB-231 breast
MDA-MB-435 melanoma = system: MDA-MB-435 melanoma
MDA-MB-468 breast = system: MDA-MB-468 breast
NCI-H226 lung = system: NCI-H226 lung
NCI-H23 lung = system: NCI-H23 lung
NCI-H322M lung = system: NCI-H322M lung
NCI-H460 NSCLC = system: NCI-H460 NSCLC
NCI-H522 lung = system: NCI-H522 lung
NCI/ADR-RES ovarian = system: NCI/ADR-RES ovarian
OVCAR-3 ovarian = system: OVCAR-3 ovarian
OVCAR-5 ovarian = system: OVCAR-5 ovarian
PC-3 prostate = system: PC-3 prostate
RXF 393 renal = system: RXF 393 renal
SF-268 CNS = system: SF-268 CNS
SF-295 CNS = system: SF-295 CNS
SF-539 CNS = system: SF-539 CNS
SK-MEL-28 melanoma = system: SK-MEL-28 melanoma
SK-MEL-5 melanoma = system: SK-MEL-5 melanoma
SN12C renal = system: SN12C renal
SNB-19 CNS = system: SNB-19 CNS
SNB-75 CNS = system: SNB-75 CNS
SR leukemia = system: SR leukemia
SW-620 colon = system: SW-620 colon
T-47D breast = system: T-47D breast
TK-10 renal = system: TK-10 renal
U251 glioblastoma = system: U251 glioblastoma

`O=C(c1ccccc1O)c1[nH]c(Cl)c(Cl)c1-n1c(C(=O)c2ccccc2O)cc(Cl)c1Cl` gave a GI50 ([…]-0 renal) of 619 nM, a TGI (786-0 renal) of 1920 nM and a GI50 (A498 renal) of 399 nM. The TGI (A498 renal) was 1760 nM, the GI50 (A549 NSCLC) was 654 nM and the TGI (A549 NSCLC) was 2480 nM. For the same compound, the GI50 (ACHN renal) was 649 nM, the TGI (ACHN renal) was 2780 nM and the GI50 (CAKI-1 renal) was 411 nM. It also gave a TGI (CAKI-1 renal) of 2190 nM, a GI50 (CCRF-CEM leukemia) of 240 nM and a TGI (CCRF-CEM leukemia) of 705 nM. The GI50 (COLO 205 colon) was 747 nM, the TGI (COLO 205 colon) was 3800 nM and the GI50 (DU-145 prostate) was 681 nM. For the same compound, the TGI (DU-145 prostate) was 8400 nM, the GI50 (EKVX NSCLC) was 230 nM and the TGI (EKVX NSCLC) was 842 nM. For the same compound, the GI50 (HCC-2998 colon) was 537 nM, the TGI (HCC-2998 colon) was 1950 nM and the GI50 (HCT-15 colon) was 277 nM. It also gave a TGI (HCT-15 colon) of 1040 nM, a GI50 (HL-60(TB) leukemia) of 257 nM and a TGI (HL-60(TB) leukemia) of 572 nM. The GI50 (HOP-62 NSCLC) was 552 nM, the TGI (HOP-62 NSCLC) was 1590 nM and the GI50 (HS 578T breast) was 157 nM. It also gave a TGI (HS 578T breast) of 440 nM, a GI50 (HT29 colon) of 518 nM and a TGI (HT29 colon) of 4330 nM. The GI50 (IGROV1 ovarian) was 521 nM, the TGI (IGROV1 ovarian) was 8560 nM and the GI50 (K-562 leukemia) was 238 nM. For the same compound, the TGI (K-562 leukemia) was 3070 nM, the GI50 (KM12 colon) was 537 nM and the TGI (KM12 colon) was 1930 nM. The GI50 (LOX IMVI melanoma) was 833 nM, the TGI (LOX IMVI melanoma) was 2330 nM and the GI50 (M14 melanoma) was 682 nM. The TGI (M14 melanoma) was 2380 nM, the GI50 (MCF7 breast) was 263 nM and the TGI (MCF7 breast) was 1230 nM. The GI50 (MDA-MB-231 breast) was 424 nM, the TGI (MDA-MB-231 breast) was 1450 nM and the GI50 (MDA-MB-435 melanoma) was 801 nM. The TGI (MDA-MB-435 melanoma) was 3050 nM, the GI50 (MDA-MB-468 breast) was 13 nM and the TGI (MDA-MB-468 breast) was 267 nM. For the same compound, the GI50 (NCI-H226 lung) was 634 nM, the TGI (NCI-H226 lung) was 1890 nM and the GI50 (NCI-H23 lung) was 220 nM. The TGI (NCI-H23 lung) was 610 nM, the GI50 (NCI-H322M lung) was 302 nM and the TGI (NCI-H322M lung) was 1020 nM. The GI50 (NCI-H460 NSCLC) was 288 nM, the TGI (NCI-H460 NSCLC) was 938 nM and the GI50 (NCI-H522 lung) was 174 nM. For the same compound, the TGI (NCI-H522 lung) was 536 nM, the GI50 (NCI/ADR-RES ovarian) was 384 nM and the TGI (NCI/ADR-RES ovarian) was 1270 nM. The GI50 (OVCAR-3 ovarian) was 353 nM, the TGI (OVCAR-3 ovarian) was 1500 nM and the GI50 (OVCAR-5 ovarian) was 1440 nM. The TGI (OVCAR-5 ovarian) was 4710 nM, the GI50 (PC-3 prostate) was 292 nM and the TGI (PC-3 prostate) was 978 nM. The GI50 (RXF 393 renal) was 600 nM, the TGI (RXF 393 renal) was 2120 nM and the GI50 (SF-268 CNS) was 116 nM. For the same compound, the TGI (SF-268 CNS) was 871 nM, the GI50 (SF-295 CNS) was 448 nM and the TGI (SF-295 CNS) was 1300 nM. For the same compound, the GI50 (SF-539 CNS) was 537 nM, the TGI (SF-539 CNS) was 1630 nM and the GI50 (SK-MEL-28 melanoma) was 367 nM. It also gave a TGI (SK-MEL-28 melanoma) of 1430 nM, a GI50 (SK-MEL-5 melanoma) of 417 nM and a TGI (SK-MEL-5 melanoma) of 913 nM. It also gave a GI50 (SN12C renal) of 209 nM, a TGI (SN12C renal) of 746 nM and a GI50 (SNB-19 CNS) of 373 nM. It also gave a TGI (SNB-19 CNS) of 3960 nM, a GI50 (SNB-75 CNS) of 487 nM and a TGI (SNB-75 CNS) of 2440 nM. It also gave a GI50 (SR leukemia) of 340 nM, a TGI (SR leukemia) of 1100 nM and a GI50 (SW-620 colon) of 367 nM. For the same compound, the TGI (SW-620 colon) was 1540 nM, the GI50 (T-47D breast) was 218 nM and the TGI (T-47D breast) was 883 nM. It also gave a GI50 (TK-10 renal) of 386 nM, a TGI (TK-10 renal) of 4500 nM and a GI50 (U251 glioblastoma) of 331 nM. The TGI (U251 glioblastoma) was 1130 nM.
